# Earlier results, collected in patent publication US10927398B2, “Compositions for CYP450 phenotyping using saliva samples” (Concordia University, Inc., priority 2015, dated 2021).
# Like-named read-outs stand apart in the source and are kept apart here.
# Legend:
# [1] = cited from earlier work
# [2] = cited from earlier work; remark: listed apart in the source
# plasma protein = conditions: cited from earlier work
# [3] = Table of Exemplary Drugs, CYP3A4
# [4] = Table of Exemplary Drugs, CYP2C19
# [5] = Table of Exemplary Drugs, CYP2C9
# [6] = Table of Exemplary Drugs, CYP2D6
# [7] = Table of Exemplary Drugs, CYP1A2
compound,measurement,setting,value
"CCOC(=O)C1=C(C)NC(C)=C(C(=O)OC)C1c1cccc([N+](=O)[O-])c1 (stereo not drawn) [Nitrendipine (Baypress), Nitrendipine]",ORAL BIOAVAILABILITY,[1]; [3],23%
same,HALF-LIFE,[2]; [3],2 to 24 h
same,PLASMA PROTEIN BINDING,plasma protein; [3],97-99% ^
CN1C[C@H](C(=O)N[C@]2(C)O[C@@]3(O)[C@@H]4CCCN4C(=O)[C@H](Cc4ccccc4)N3C2=O)C[C@@H]2c3cccc4[nH]cc(c34)C[C@H]21 [Dihydroergotamine],ORAL BIOAVAILABILITY,"[1]; in vivo, po",<32%
same,HALF-LIFE,[2]; in vivo,9 to 10 h
same,PLASMA PROTEIN BINDING,plasma protein; plasma,93%
C#C[C@]1(O)CC[C@H]2[C@@H]3CCc4cc(O)ccc4[C@H]3CC[C@@]21C [Ethinyl Estradiol],ORAL BIOAVAILABILITY,[1]; [3],38-48%
same,HALF-LIFE,[2]; [3],7 to 36 h
same,PLASMA PROTEIN BINDING,plasma protein; [3],97-98% ^
O=C(NCCN1CCOCC1)c1ccc(Cl)cc1 [Moclobemide],ORAL BIOAVAILABILITY,[1]; [4],55-95%
same,HALF-LIFE,[2]; [4],2 h
same,PLASMA PROTEIN BINDING,plasma protein; [4],50%
"COc1ccccc1Oc1c(NS(=O)(=O)c2ccc(C(C)(C)C)cc2)nc(-c2ncccn2)nc1OCCO [Basentan (Tracleer), Basentan]",ORAL BIOAVAILABILITY,[1]; [3],50%
same,HALF-LIFE,[2]; [3],5 h
same,PLASMA PROTEIN BINDING,plasma protein; [3],98%
"CC(C)N(CCC(C(N)=O)(c1ccccc1)c1ccccn1)C(C)C (stereo not drawn) [Disopyramide (Norpace), Disopyramide]",ORAL BIOAVAILABILITY,[1]; [3],80%
same,HALF-LIFE,[2]; [3],6.7 h
same,PLASMA PROTEIN BINDING,plasma protein; [3],50-65% ^
CC(C(=O)O)c1ccc(C(=O)c2cccs2)cc1 (stereo not drawn) [Suprofen],ORAL BIOAVAILABILITY,[1]; [5],92%
same,HALF-LIFE,[2]; [5],2 to 4 h
same,PLASMA PROTEIN BINDING,plasma protein; [5],>99%
CCC1(c2ccccc2)C(=O)NCNC1=O [Primidone],ORAL BIOAVAILABILITY,[1]; [4],90-100%
same,HALF-LIFE,[2]; [4],3.3 to 7 h
same,PLASMA PROTEIN BINDING,plasma protein; [4],20-30% ^
"CCCC1O[C@@H]2C[C@H]3[C@@H]4CCC5=CC(=O)C=C[C@]5(C)[C@H]4[C@@H](O)C[C@]3(C)[C@]2(C(=O)CO)O1 (stereo partly drawn) [Budesonide (Entocort), Budesonide]",ORAL BIOAVAILABILITY,[1]; [3],9-21%
same,HALF-LIFE,[2]; [3],2 to 3.6 h
same,PLASMA PROTEIN BINDING,plasma protein; [3],85-90% ^
"O=C(C1CCCCC1)N1CC(=O)N2CCc3ccccc3C2C1 (stereo not drawn) [Praziquantel (Biltricide), Praziquantel]",ORAL BIOAVAILABILITY,[1]; [3],80%
same,HALF-LIFE,[2]; [3],0.8 to 3 h
same,PLASMA PROTEIN BINDING,plasma protein; [3],80%
CN1CCN2c3ccccc3Cc3ccccc3C2C1 (stereo not drawn) [Mianserin],ORAL BIOAVAILABILITY,[1]; [6],20-30%
same,HALF-LIFE,[2]; [6],1.4 h
same,PLASMA PROTEIN BINDING,plasma protein; [6],90%
COc1ccc2cccc(CCNC(C)=O)c2c1 [Agomelatine],ORAL BIOAVAILABILITY,[1]; [7],<5%
same,HALF-LIFE,[2]; [7],1 to 2 h
same,PLASMA PROTEIN BINDING,plasma protein; [7],95%
Cc1cccc(Nc2ccncc2S(=O)(=O)NC(=O)NC(C)C)c1 [Torasemide],ORAL BIOAVAILABILITY,[1]; [5],80%
same,HALF-LIFE,[2]; [5],2.2 to 3.8 h
same,PLASMA PROTEIN BINDING,plasma protein; [5],>99%
COc1cccc(C2(O)CCCCC2CN(C)C)c1 (stereo not drawn) [Tramadol],ORAL BIOAVAILABILITY,[1]; [6],75%
same,HALF-LIFE,[2]; in vivo,5.6 to 5.7 h
same,PLASMA PROTEIN BINDING,plasma protein; [6],20%
CC[C@@H](c1cccc(O)c1)[C@@H](C)CN(C)C [Tapentadol],ORAL BIOAVAILABILITY,[1]; [5],32%
same,ORAL BIOAVAILABILITY,[1]; [4],32%
same,ORAL BIOAVAILABILITY,[1]; [6],32%
same,HALF-LIFE,[2]; [5],4 to 5 h
same,HALF-LIFE,[2]; [4],4 to 5 h
same,HALF-LIFE,[2]; [6],4 to 5 h
same,PLASMA PROTEIN BINDING,plasma protein; [5],20%
same,PLASMA PROTEIN BINDING,plasma protein; [4],20%
same,PLASMA PROTEIN BINDING,plasma protein; [6],20%
"C[C@@H](O[C@H]1OCCN(Cc2n[nH]c(=O)[nH]2)[C@H]1c1ccc(F)cc1)c1cc(C(F)(F)F)cc(C(F)(F)F)c1 [Aprepitant (Emend), Aprepitant]",ORAL BIOAVAILABILITY,[1]; [3],60-65%
same,HALF-LIFE,[2]; [3],9 to 13 h
same,PLASMA PROTEIN BINDING,plasma protein; [3],95%
"Cc1ccsc1C(=CCCN1CCC[C@@H](C(=O)O)C1)c1sccc1C [Tiagabine (Gabitril), Tiagabine]",ORAL BIOAVAILABILITY,[1]; [3],90%
same,HALF-LIFE,[2]; [3],7 to 9 h
same,PLASMA PROTEIN BINDING,plasma protein; [3],96%
CN(C)CCCN1c2ccccc2Sc2ccc(Cl)cc21 [Chlorpromazine],ORAL BIOAVAILABILITY,[1]; [6],32%
same,HALF-LIFE,[2]; [6],6 h
same,PLASMA PROTEIN BINDING,plasma protein; [6],90-99% ^
"OC(c1cc(C(F)(F)F)nc2c(C(F)(F)F)cccc12)C1CCCCN1 (stereo not drawn) [Mefloquine (Lariam), Mefloquine]",ORAL BIOAVAILABILITY,[1]; [3],85%
same,HALF-LIFE,[2]; [3],3 weeks
same,PLASMA PROTEIN BINDING,plasma protein; [3],98%
"CCS(=O)(=O)CCn1c([N+](=O)[O-])cnc1C [Tinidazole (Tindamax), Tinidazole]",ORAL BIOAVAILABILITY,[1]; [3],100%
same,HALF-LIFE,[2]; [3],11.1 to 14.7 h
same,PLASMA PROTEIN BINDING,plasma protein; [3],12%
CCC1(c2ccccc2)C(=O)NC(=O)N(C)C1=O (stereo not drawn) [Methylphenobarbital],ORAL BIOAVAILABILITY,"[1]; in vivo, po",50%
same,HALF-LIFE,[2]; in vivo,31 to 67 h
same,PLASMA PROTEIN BINDING,plasma protein; plasma,70-76% ^
CCC1(c2ccccc2)C(=O)NC(=O)NC1=O [Phenobarbital],ORAL BIOAVAILABILITY,"[1]; in vivo, po",80-100%
same,HALF-LIFE,[2]; in vivo,36 to 120 h
same,PLASMA PROTEIN BINDING,plasma protein; plasma,20-60% ^
"CCCc1nc(C)c2c(=O)[nH]c(-c3cc(S(=O)(=O)N4CCN(CC)CC4)ccc3OCC)nn12 [Vardenafil (Levitra), Vardenafil]",ORAL BIOAVAILABILITY,[1]; [3],15-44%
same,HALF-LIFE,[2]; [3],4 to 5 h
same,PLASMA PROTEIN BINDING,plasma protein; [3],95%
COc1ccc(C(=O)Nc2ccccc2CCC2CCCCN2C)cc1 (stereo not drawn) [Encainide],ORAL BIOAVAILABILITY,[1]; [6],25-90%
same,HALF-LIFE,[2]; [6],1.5 to 11.3 h
same,PLASMA PROTEIN BINDING,plasma protein; [6],70.5-78% ^
"O=C(O[C@H]1CN2CCC1CC2)N1CCc2ccccc2[C@@H]1c1ccccc1 [Solifenacin (Vesicare), Solifenacin]",ORAL BIOAVAILABILITY,"[1]; in vivo, po",90%
same,HALF-LIFE,[2]; in vivo,45 to 68 h
same,PLASMA PROTEIN BINDING,plasma protein; plasma,98%
CCc1nn(CCCN2CCN(c3cccc(Cl)c3)CC2)c(=O)n1CCOc1ccccc1 [Nefazodone],ORAL BIOAVAILABILITY,[1]; [3],20%
same,HALF-LIFE,[2]; [3],2 to 4 h
same,PLASMA PROTEIN BINDING,plasma protein; [3],>99%
O=C1NC(=O)C(c2ccccc2)(c2ccccc2)N1 [Phenytoin],ORAL BIOAVAILABILITY,[1]; [5],20-90%
same,ORAL BIOAVAILABILITY,[1]; [4],20-90%
same,HALF-LIFE,[2]; [5],14 to 22 h
same,HALF-LIFE,[2]; [4],14 to 22 h
same,PLASMA PROTEIN BINDING,plasma protein; [5],88-93% ^
same,PLASMA PROTEIN BINDING,plasma protein; [4],88-93% ^
"COc1ccccc1OCC(O)CN1CCN(CC(=O)Nc2c(C)cccc2C)CC1 (stereo not drawn) [Ranulazine (Ranexa), Ranulazine]",ORAL BIOAVAILABILITY,[1]; [3],55%
same,HALF-LIFE,[2]; [3],7 to 8.9 h
same,PLASMA PROTEIN BINDING,plasma protein; [3],62%
COc1ccc2c3c1O[C@H]1[C@@H](O)C=C[C@H]4[C@@H](C2)N(C)CC[C@@]341 [Codeine],ORAL BIOAVAILABILITY,"[1]; in vivo, po",90%
same,HALF-LIFE,[2]; in vivo,2.5 to 3 h
same,PLASMA PROTEIN BINDING,plasma protein; [6],7-25%^
Cc1cccc(C)c1OCC(C)N (stereo not drawn) [Mexiletine],ORAL BIOAVAILABILITY,[1]; [7],90%
same,ORAL BIOAVAILABILITY,[1]; [6],80-90%
same,HALF-LIFE,[2]; [7],10 to 12 h
same,HALF-LIFE,[2]; [6],6 to 17 h
same,PLASMA PROTEIN BINDING,plasma protein; [7],50-60% ^
same,PLASMA PROTEIN BINDING,plasma protein; [6],50-70% ^
CCN1CCC[C@H]1CNC(=O)c1c(OC)ccc(Br)c1OC [Remoxipride],ORAL BIOAVAILABILITY,[1]; [6],96%
same,HALF-LIFE,[2]; [6],3 to 6 h
same,PLASMA PROTEIN BINDING,plasma protein; [6],5-6%
"CC(C)Nc1cccnc1N1CCN(C(=O)c2cc3cc(NS(C)(=O)=O)ccc3[nH]2)CC1 [Delavirdine (Rescriptor), Delavirdine]",ORAL BIOAVAILABILITY,[1]; [3],85%
same,HALF-LIFE,[2]; [3],5.8 h
same,PLASMA PROTEIN BINDING,plasma protein; [3],98%
CCCCC1=NC2(CCCC2)C(=O)N1Cc1ccc(-c2ccccc2-c2nnn[nH]2)cc1 [Irbesartan],ORAL BIOAVAILABILITY,[1]; [5],60-80%
same,HALF-LIFE,[2]; [5],11 to 15 h
same,PLASMA PROTEIN BINDING,plasma protein; [5],90%
"Clc1ccc2c(c1)C(c1ccccc1)=NCc1nncn1-2 [Estazolam (ProSom), Estazolam]",ORAL BIOAVAILABILITY,[1]; [3],93%
same,HALF-LIFE,[2]; [3],10 to 24 h
same,PLASMA PROTEIN BINDING,plasma protein; [3],93%
Polyunsaturated FAs,ORAL BIOAVAILABILITY,[1]; [5],64-73%
same,HALF-LIFE,[2]; [5],2.7 to 5.5 h
same,PLASMA PROTEIN BINDING,plasma protein; [5],>99%
CC(=O)Nc1ccc(O)cc1 [Paracetamol],ORAL BIOAVAILABILITY,[1]; [7],85-98%
same,HALF-LIFE,[2]; [7],1 to 4 h
same,PLASMA PROTEIN BINDING,plasma protein; [7],10-25% ^
COc1ccnc(C[S+]([O-])c2nc3ccc(OC(F)F)cc3[nH]2)c1OC (stereo not drawn) [Pantoprazole],ORAL BIOAVAILABILITY,[1]; [4],77%
same,HALF-LIFE,[2]; [4],1 h
same,PLASMA PROTEIN BINDING,plasma protein; [4],98%
OCCN1CCN(CC/C=C2/c3ccccc3Sc3ccc(Cl)cc32)CC1 [Zuclopenthixol],ORAL BIOAVAILABILITY,[1]; [6],49%
same,HALF-LIFE,[2]; [6],20 h
same,PLASMA PROTEIN BINDING,plasma protein; [6],98%
